# Results published in patent publication US20110124842A1 (priority 2003, published 2011).
# Where two headings read alike, the source gives them in different places.
# Test system: IgG 4E10
# Assay: Competitive ELISA (IC50): peptide competes with biotinylated 4E10-epitope peptide for IgG 4E10
# Type: binding, human
# Protocol: IC50, were determined by competitive ELISA using a constant concentration of biotinylated peptide and IgG with a variable concentration of gp41 peptides. Microwells were coated overnight at 4° C. with 50 μl PBS containing neutravidin (Pierce; 4 μg/ml). […] A mixture of a biotinylated 4E10-epitope peptide, […](biotin)-NH2 (SEQ ID NO: 88) (20 nM), IgG 4E10 (0.2 nM), and the competing peptide analog (3-fold dilution series starting at 10 μM) in 0.4% non-fat dry milk, 0.02% Tween and PBS was incubated in a separate 96-well plate at 37° C. for 2 hours. After washing the blocked plate, the mixture of 4E10, biotinylated peptide and competing peptide was added to the wells. After 20 minutes at room temperature, the Wells were washed five times, and a 1:500 dilution of goat anti-human IgG F(ab′)2 HRP conjugate (Pierce) was added. Following incubation at RT for 40 minutes, the wells were washed five times, and developed by adding 50 μl of TMB solution (Pierce) according to the manufacturer's instructions. After ˜20 minutes, wells containing TMB solution were stopped by adding 50 μl of H2SO4 (2M) and the O.D. at 450 nm was read on a microplate reader (Molecular Devices). The concentration of competitor peptide corresponding to a half-maximal signal (IC50) was determined by interpolation of the resulting binding curve. Each peptide competitor was tested in duplicate in at least two separate experiments.
# IC50s were determined by competitive ELISA using a constant concentration of biotinylated peptide and IgG with a variable concentration of gp41 peptides. Microwells were coated overnight at 4° C. with 50 μl PBS containing neutravidin (Pierce; 4 μg/ml). […] Meanwhile, a mixture of a biotinylated 4E10-peptide epitope, […](biotin)-NH2 (SEQ ID NO: 88), (20 nM), IgG 4E10 (0.2 nM), and the competing peptide analogue (3-fold dilution series starting at 10 μM) in 0.4% NFDM, 0.02% Tween and PBS was incubated in a separate 96-well plate at 37° C. for 2 h. After washing the blocked plate, the mixture of 4E10, biotinylated peptide and competing peptide was added to the wells. After 20 min at room temperature, the wells were washed five times, and a 1:500 dilution of goat anti-human IgG F(ab′)2 HRP conjugate (Pierce) was added. Following incubation at RT for 40 min, the wells were washed five times, and developed by adding 50 μl of H2SO4 (2 M), and the O.D. at 450 nm was read on a microplate reader (Molecular Devices). The concentration of competitor peptide corresponding to a half-maximal signal (IC50) was determined by interpolation of the resulting binding curve. Each peptide competitor was tested in duplicate in at least two separate experiments.
sequence,measurement,setting,value
"NWFDITNWLWYIKKKK [Peptide 94-1, NWFDITNWLWYIKKKK-NH2]",improvement in 4E10 binding (IC50) over the starting peptide NWFDITNWLWKKKK-NH2,,4 fold
same,improvement in IC50 compared to KGND,,over 1000 fold
same,IC50,"Table 5, unconstrained peptide analogs, 4E10 binding, read-out: IC50",10 nM
same,IC50,"Table 7, 4E10 peptide epitopes, read-out: IC50",10 nM
same,higher affinity of 4E10 than to the original peptide KGND,as determined by surface plasmon resonance and ELISA,approximately 10^3 fold
same,IC50,"read-out: IC50 (4E10 binding, competitive ELISA)",10 nM
